The values below come from patent US20190218226A1, “PRODRUGS OF ANTICANCER AGENTS INDOTECAN AND INDIMITECAN” (Purdue Research Foundation, priority 2016, published 2019).

Where two headings read alike, the source gives them in different places. Bounds are passed on as bounds.

One data set concerns HCT-116. In words: NCI60 antiproliferative screen, colon HCT-116. The following applies: Homo sapiens; HCT-116, 48 h, sulforhodamine B; read-out: Cytotoxicity (GI50) Colon HCT-116. The class given is cell-based, human. The method, then: (§1) All of the indenoisoquinolines were tested for antiproliferative activity in the National Cancer Institute's 60 cell line screen (NCI60). The cells were incubated with the tested compounds at 100, 10, 1, 0.1, and 0.01 μM concentrations for 48 h before treatment with sulforhodamine B dye. Optical densities were recorded, and their ratios relative to that of the control were plotted as percentage growth against the log 10 of the tested compound concentrations. The concentration that corresponds to 50% growth inhibition (GI50) is calculated by interpolation between the points located above and below the 50% percentage growth. The mean-graph midpoint (MGM) is an estimated average of the GI50 values derived from the NCI collection of 60 human cancer cell lines, where during the MGM calculation, anticancer agents with GI50 values that are outside the testing range of 0.01-100 μM are arbitrarily assigned the values of 0.01 and 100 μM, respectively. […] Also, the GI50 values of many of the substances vs. individual human cancer cell lines are below the lowest concentration used (0.01 μM) in the standard NCI testing protocol. […] For example, the MGM cytotoxicity values of 9, 15-17, and 19 are all very close to each other, but the Top1 inhibitory activities range from +++(+) to 0.

The next data set has as its system SF-539. The data set is described as follows: NCI60 antiproliferative screen, CNS SF-539. It counts as cell-based, human. Particulars: Homo sapiens; SF-539, 48 h, sulforhodamine B; read-out: Cytotoxicity (GI50) CNS SF-539. The method, then:
as §1

For a further data set, the system named is DU-145. The data set is described as follows: NCI60 antiproliferative screen, prostate DU-145. The class given is cell-based, human. Particulars: Homo sapiens; DU-145, 48 h, sulforhodamine B; read-out: Cytotoxicity (GI50) prostate DU-145. The method, then: as §1
For another data set, the system named is HOP-62. In words: NCI60 antiproliferative screen, lung HOP-62. The following applies: Homo sapiens; HOP-62, 48 h, sulforhodamine B; read-out: Cytotoxicity (GI50) lung HOP-62. The class given is cell-based, human. Here is the method:
as §1

In data set [1] the test system is all human cancer cell lines successfully tested (NCI60). In words: NCI60 mean graph midpoint for growth inhibition. It counts as cell-based. Here is the method: as §1
The subject of the next data set is SN12C. The data set is described as follows: NCI60 antiproliferative screen, renal SN12C. The class given is cell-based, human. The following applies: Homo sapiens, 48 h, sulforhodamine B, read-out: Cytotoxicity (GI50) renal SN12C. The method, then:
as §1

In a further data set the test system is UACC-62. The data set is described as follows: NCI60 antiproliferative screen, melanoma UACC-62. It counts as cell-based, human. Particulars: Homo sapiens; UACC-62, 48 h, sulforhodamine B; read-out: Cytotoxicity (GI50) melanoma UACC-62. Here is the method: as §1
For a further data set, the system named is MCF-7. In words: NCI60 antiproliferative screen, breast MCF-7. The class given is cell-based, human. The following applies: Homo sapiens, MCF7; MCF-7, 48 h, sulforhodamine B; read-out: Cytotoxicity (GI50) breast MCF-7. The method, then: as §1
The target in another data set is T1, Human recombinant Top1 (Homo sapiens, UniProt P11387).
T1 construct: made in house
T1 sequence (P11387 1-765): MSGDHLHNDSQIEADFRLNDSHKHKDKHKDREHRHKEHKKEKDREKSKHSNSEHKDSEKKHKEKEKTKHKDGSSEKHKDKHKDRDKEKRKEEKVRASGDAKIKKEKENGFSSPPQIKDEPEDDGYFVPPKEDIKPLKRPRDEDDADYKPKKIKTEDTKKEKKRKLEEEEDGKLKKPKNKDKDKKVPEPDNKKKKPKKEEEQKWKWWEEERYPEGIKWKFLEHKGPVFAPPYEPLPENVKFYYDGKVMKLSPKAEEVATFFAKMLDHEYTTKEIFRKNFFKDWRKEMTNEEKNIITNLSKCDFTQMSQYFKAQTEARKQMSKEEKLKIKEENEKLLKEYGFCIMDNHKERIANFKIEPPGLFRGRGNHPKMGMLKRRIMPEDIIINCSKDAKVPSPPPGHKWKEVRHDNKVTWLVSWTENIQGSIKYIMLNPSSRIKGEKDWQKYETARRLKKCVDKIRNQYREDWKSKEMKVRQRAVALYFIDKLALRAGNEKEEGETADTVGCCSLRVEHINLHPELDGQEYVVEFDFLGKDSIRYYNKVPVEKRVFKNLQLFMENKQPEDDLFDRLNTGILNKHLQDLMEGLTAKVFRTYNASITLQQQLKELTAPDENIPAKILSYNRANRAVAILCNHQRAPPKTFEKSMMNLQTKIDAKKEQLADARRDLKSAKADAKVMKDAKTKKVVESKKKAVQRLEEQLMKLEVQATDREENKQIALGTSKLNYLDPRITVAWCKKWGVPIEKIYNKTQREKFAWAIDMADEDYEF
In words: Top1-mediated DNA cleavage assay. It counts as biochemical. Further details: key to Top1 inhibitory activity (level): 0, no detectable activity; +, weak activity; ++, similar activity to compound 4; +++, greater activity than 4; ++++, equipotent with 1; ++(+) would be between ++ and +++. Particulars: for Top 1 Cleavage: graded relative to 1 μM camptothecin; for Top1 inhibitory activity (level): scored relative to compounds 1 and 4. The method, then: All of the new indenoisoquinoline derivatives were tested in Top1-mediated DNA cleavage assays. For this purpose, a ^32P 3′-end labeled 117-bp DNA fragment was incubated with Top1 at four concentrations of a tested compound. The DNA fragments were separated on 20% PAGE denaturing gels. The Top1 inhibitory activities were assigned on the basis of the visual inspection of the number and intensities of the gel bands corresponding to Top1-mediated DNA cleavage fragments and scored relative to the Top1 inhibitory activity of compounds 1 and 4. Results are expressed in semiquantitative fashion: 0, no detectable activity; +, weak activity; ++, similar activity to compound 4; +++, greater activity than 4; ++++, equipotent with 1. Ambiguous scores (e.g., between two values) are designated with parentheses (e.g., ++(+) would be between ++ and +++). […] After conversion of the hydroxyl to a dimethylcarbamate, the observed Top1 inhibitory activity increased from ++(+) for compound 8 to +++ for compound 10. Introduction of an acetyl group at the 0-2 position yielded compound 11, which was also a Top1 poison with activity at the ++ level. Subsequently, several hydrophobic substituents were attached to the 0-2 position.
Topoisomerase I-Mediated DNA Cleavage Reactions.
Human recombinant Top1 was purified from baculovirus as previously described (Morrell, A., et al., J. Med. Chem. 2007, 50, 2040-2048). DNA cleavage reactions were prepared as previously reported with the exception of the DNA substrate (Strumberg, D., et al., J. Med. Chem. 1999, 42, 446-457). Briefly, a 117-bp DNA oligonucleotide (Integrated DNA Technologies) encompassing the previously identified Top1 cleavage sites in the 161-bp fragment from pBluescript SK(−) phagemid DNA was employed. This 117-bp oligonucleotide contains a single 5′-cytosine overhang, which was 3′-end-labeled by fill-in reaction with [α-^32P]dGTP in React 2 buffer (50 mM Tris-HCl, pH 8.0, […], 50 mM NaCl) with 0.5 unit of DNA polymerase I (Klenow fragment, New England BioLabs). Unincorporated [^32P]dGTP was removed using mini Quick Spin DNA columns (Roche, Indianapolis, Ind.), and the eluate containing the 3′-end-labeled DNA substrate was collected. Approximately 2 nM radiolabeled DNA substrate was incubated with recombinant Top1 in 20 μL of reaction buffer [10 mM Tris-HCl (pH 7.5), 50 mM KCl, 5 mM MgCl2, 0.1 mM EDTA, and 15 μg/mL BSA] at 25° C. for 20 min in the presence of various concentrations of compounds. The reactions were terminated by adding SDS (0.5% final concentration) followed by the addition of two volumes of loading dye (80% formamide, 10 mM sodium hydroxide, 1 mM sodium EDTA, 0.1% xylene cyanol, and 0.1% bromophenol blue). Aliquots of each reaction mixture were subjected to 20% denaturing PAGE. Gels were dried and visualized by using a phosphoimager and ImageQuant software (Molecular Dynamics). For simplicity, cleavage sites were numbered as previously described in the 161-bp fragment.

The subject of another data set is OVCAR-3. The data set is described as follows: NCI60 antiproliferative screen, ovarian OVCAR-3. The following applies: Homo sapiens; OVCAR-3, 48 h, sulforhodamine B; read-out: Cytotoxicity (GI50) Ovarian OVCAR-3. It counts as cell-based, human. Here is the method: as §1
The mark [2] stands for this setting: all human cancer cell lines successfully tested, ± standard error, read-out: MGM (mean graph midpoint for growth inhibition).

Regarding `COc1cc2c(=O)n(CCCN3CCOCC3)c3c(c2cc1OC(=O)N(C)C)C(=O)c1cc2c(cc1-3)OCO2` [Compound 10, 3-Methoxy-6-(3-morpholinopropyl)-5,12-dioxo-6,12-dihydro-5H-[1,3]dioxolo[4′,5′:5,6]indeno[1,2-c]isoquinolin-2-yl Dimethylcarbamate], the melting point – broadly, the temperature, or range, at which the solid turns liquid – was 268 to 270 °C (dec.). The concentration for 50% growth inhibition (GI50) (as a rule, the concentration that inhibits growth by half) in the data set on HCT-116 was found to be 6.07 µM. In addition, the GI50 with SF-539 turned out to be 1.86 µM. For the same compound, in the data set on DU-145, the concentration for 50% growth inhibition (GI50) worked out at 1.55 µM. In addition, the concentration for 50% growth inhibition (GI50) in the data set on HOP-62 came out at 1.7 µM. In addition, the “GI50's against various cell lines (range in words)” value in data set [1] (NCI60) is given as “micromolar range”. Further, the mean GI50 across NCI60 cell lines (MGM) in data set [1] (setting [2]) came to 3.46 ± 0.999 µM. In addition, the GI50 in the data set with SN12C came out at 2.4 µM. Besides, the GI50 in the data set on UACC-62 came out at 4.47 µM. Also, the GI50 with MCF-7 worked out at 0.022 µM. Further, at Human recombinant Top1, the “Top1 inhibitory activity (in words)” value is on record as “slight improvement in Top1 inhibitory activity”; the “Top 1 Cleavage” value is “+++ (+++, between 75 and 95% activity)”; the “Top1 inhibitory activity (level)” value is on record as “+++”. Also, in the data set on OVCAR-3, the GI50 is 12 µM.
In the case of `COc1cc2c(=O)n(CCCN3CCOCC3)c3c(c2cc1OC(=O)c1cccnc1)C(=O)c1cc2c(cc1-3)OCO2` [Compound 14, 3-Methoxy-6-(3-morpholinopropyl)-5,12-dioxo-6,12-dihydro-5H-[1,3]dioxolo[4′,5′:5,6]indeno[1,2-c]isoquinolin-2-yl Nicotinate], the melting point is 277 to 279 °C (dec.). Besides, the GI50 with HCT-116 came out at 0.03 µM. The GI50 with SF-539 was under 0.01 µM. Besides, the GI50 with DU-145 is 0.013 µM. Further, the concentration for 50% growth inhibition (GI50) in the data set on HOP-62 turned out to be 0.012 µM. The mean GI50 across NCI60 cell lines (MGM) in data set [1] (Homo sapiens, NCI60, read-out: MGM value) is 0.158 ± 0.065 µM. In data set [1] (setting [2]), the mean GI50 across NCI60 cell lines (MGM) is 0.158 ± 0.065 µM. Further, the GI50 in the data set with SN12C is under 0.01 µM. Further, in the data set on UACC-62, the 50% growth inhibitory concentration (GI50) is 0.022 µM. Moreover, in the data set on MCF-7, the 50% growth inhibitory concentration (GI50) is under 0.01 µM. Also, on Human recombinant Top1, the “Top1 inhibitory activity (in words)” value is given as “slight improvement in Top1 inhibitory activity”; the “Top 1 Cleavage” value is “+++ (+++, between 75 and 95% activity)”; the “Top1 inhibitory activity (level)” value was “+++”. In addition, the GI50 in the data set on OVCAR-3 is 0.295 µM.
For `COc1cc2c3c(n(CCCN4CCOCC4)c(=O)c2cc1OC(=O)c1cccnc1)-c1cc2c(cc1C3=O)OCO2` [Compound 19, 2-Methoxy-6-(3-morpholinopropyl)-5,12-dioxo-6,12-dihydro-5H-[1,3]dioxolo[4′,5′:5,6]indeno[1,2-c]isoquinolin-3-yl Nicotinate], the melting point is 274 to 276 °C (dec.). The GI50 in the data set with HCT-116 is under 0.01 µM. Moreover, the GI50 in the data set with SF-539 was under 0.01 µM. For the same compound, the GI50 with DU-145 is under 0.01 µM. Also, the concentration for 50% growth inhibition (GI50) with HOP-62 was under 0.01 µM. In addition, the mean GI50 across NCI60 cell lines (MGM) in data set [1] (setting [2]) was determined as 0.035 µM. Moreover, the GI50 in the data set with SN12C was under 0.01 µM. In the data set with UACC-62, the GI50 is under 0.01 µM. For the same compound, the GI50 in the data set with MCF-7 is under 0.01 µM. In addition, the “Top 1 Cleavage” value at Human recombinant Top1 was “+ (+, between 20 and 50% activities)”. Moreover, in the data set on OVCAR-3, the GI50 worked out at 0.015 µM.
